We go through 26 compounds from US20110028455A1, “Indole-substituted 3-cyanopyridines As Kinase Inhibitors” (Wyeth LLC, priority 2007, published 2011).

The experiment deals with T1, human PKCθ full length enzyme (Homo sapiens, UniProt Q04759).
T1 construct: human PKCθ full length enzyme (Panvera Cat# P2996); purchased Panvera P2996
T1 sequence (Q04759 whole entry): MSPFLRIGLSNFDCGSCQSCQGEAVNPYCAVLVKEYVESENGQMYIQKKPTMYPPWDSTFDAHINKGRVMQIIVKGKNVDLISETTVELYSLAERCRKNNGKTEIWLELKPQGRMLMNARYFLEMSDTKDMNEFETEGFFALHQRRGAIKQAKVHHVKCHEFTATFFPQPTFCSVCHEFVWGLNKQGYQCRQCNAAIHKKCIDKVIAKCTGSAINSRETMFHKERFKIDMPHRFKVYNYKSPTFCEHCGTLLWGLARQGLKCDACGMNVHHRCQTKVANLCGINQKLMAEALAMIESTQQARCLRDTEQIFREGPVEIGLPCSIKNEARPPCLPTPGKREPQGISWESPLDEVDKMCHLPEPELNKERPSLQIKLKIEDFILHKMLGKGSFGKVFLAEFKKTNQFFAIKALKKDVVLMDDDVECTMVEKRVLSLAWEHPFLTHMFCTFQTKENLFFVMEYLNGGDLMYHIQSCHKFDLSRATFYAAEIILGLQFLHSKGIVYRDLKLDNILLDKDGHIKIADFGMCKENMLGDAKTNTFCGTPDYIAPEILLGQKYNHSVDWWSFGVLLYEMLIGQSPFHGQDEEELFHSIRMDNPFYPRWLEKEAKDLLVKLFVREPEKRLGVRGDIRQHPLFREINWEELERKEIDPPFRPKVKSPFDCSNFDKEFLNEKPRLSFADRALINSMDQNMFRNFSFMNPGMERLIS
The experiment can be described thus: PKCθ IMAP Assay. The format is biochemical. The following applies: PKCθ 1 nM; ATP 6 μM; peptide 100 nM; DMSO 5%; 25 minutes at room temperature; FP readout; read-out: PKC-Theta Mean IC50. Here is the method: The materials used include the following: human PKCθ full length enzyme (Panvera Cat# P2996); substrate peptide: 5FAM-RFARKGSLRQKNV-OH (Molecular Devices, RP7032); ATP (Sigma Cat # A2383); DTT (Pierce, 20291); 5× kinase reaction buffer (Molecular Devices, R7209); 5× binding buffer A (Molecular Devices, R7282), 5× binding buffer B (Molecular Devices, R7209); IMAP Beads (Molecular Devices, R7284); and 384-well plates (Corning Costar, 3710).
The reaction buffer was prepared by diluting the 5× stock reaction buffer and adding DTT to obtain a concentration of 3.0 mM. The binding buffer was prepared by diluting the 5× binding buffer A. A master mix solution was prepared using a 90% dilution of the reaction buffer containing 2×ATP (12 uM) and 2× peptide (200 nm). Compounds were diluted in DMSO to 20× of the maximum concentration for the IC50 measurement. 27 μl of the master mix solution for each IC50 curve was added to the first column in a 384-well plate and 3 μl of 20× compound in DMSO was added to each well.
The final concentration of compound was 2× and 10% DMSO. DMSO was added to the rest of the master mix to increase the concentration to 10%. 10 μl of the master mix containing 10% DMSO was added to the rest of the wells on the plate except the 2nd column. 20 μl was transferred from the first column to the 2nd column. The compounds were serially diluted in 2:1 ratio starting from the 2nd column. A 2×(2 nM) PKCθ solution was made in the reaction buffer. 10 μl of the PKCθ solution was added to every well to achieve these final concentrations: PKCθ-1 nM; ATP-6 μM; peptide-100 nM; DMSO-5%. Samples were incubated for 25 minutes at room temperature. The binding reagent was prepared by diluting the beads in 1× binding buffer to 800:1. 50 μl of the binding reagent was added to every well and incubated for 20 minutes. FP was measured using Envision2100 (PerkinElmer Life Sciences). Wells with no ATP and wells with no enzyme were used as controls.
Broadly, the IC50 is the concentration that gives 50% inhibition. Turning to `Cc1ncc(C#N)c(Nc2ccc3[nH]ccc3c2)c1-c1cccs1` [Example 65, 4-(1H-indol-5-ylamino)-6-methyl-5-(2-thienyl)nicotinonitrile], the IC50 was determined as 80 nM. Next, `COc1ccc(-c2c(C)ncc(C#N)c2Nc2ccc3[nH]c(C)cc3c2)cc1OC` [Example 48, 5-(3,4-dimethoxyphenyl)-6-methyl-4-[(2-methyl-1H-indol-5-yl)amino]nicotinonitrile]: 556 nM. In the case of `Cc1ncc(C#N)c(Nc2ccc3[nH]ccc3c2C)c1-c1ccc(OCCN2CC(C)NC(C)C2)cc1` (centres unmarked) [Example 32, 5-{4-[2-(3,5-dimethylpiperazin-1-yl)ethoxy]phenyl}-6-methyl-4-[(4-methyl-1H-indol-5-yl)amino]nicotinonitrile], the half-inhibitory concentration (IC50) was found to be 25 nM. For `Cc1ncc(C#N)c(Nc2ccc3[nH]ccc3c2C)c1-c1ccc(OCCNCCCO)cc1` [Example 18, 5-(4-{2-[(3-hydroxypropyl)amino]ethoxy}phenyl)-6-methyl-4-[(4-methyl-1H-indol-5-yl)amino]nicotinonitrile], the IC50 was determined as 40 nM. Next, `COc1ccc(-c2c(C)ncc(C#N)c2Nc2ccc3[nH]ccc3c2)cc1OC` [Example 51, 5-(3,4-dimethoxyphenyl)-4-(1H-indol-5-ylamino)-6-methylnicotinonitrile]: 31 nM; `Cc1ncc(C#N)c(Nc2ccc3[nH]ccc3c2C)c1-c1ccc(OCCN2CCCNCC2)cc1` [Example 34, 5-{4-[2-(1,4-diazepan-1-yl)ethoxy]phenyl}-6-methyl-4-[(4-methyl-1H-indol-5-yl)amino]nicotinonitrile]: 14 nM; `COc1ccc(-c2c(C)ncc(C#N)c2Nc2ccc3cc[nH]c3c2)cc1OC` [Example 46, 5-(3,4-dimethoxyphenyl)-4-(1H-indol-6-ylamino)-6-methylnicotinonitrile]: 11900 nM. Next, `Cc1ncc(C#N)c(Nc2ccc3[nH]ccc3c2)c1-c1cc2ccccc2s1` [Example 56, 5-(1-benzothiophen-2-yl)-4-(1H-indol-5-ylamino)-6-methylnicotinonitrile]: 137 nM. For `Cc1ncc(C#N)c(Nc2ccc3[nH]ccc3c2C)c1-c1ccc(OCCNCc2ccncc2)cc1` [Example 42, 6-methyl-4-[(4-methyl-1H-indol-5-yl)amino]-5-(4-{2-[(pyridin-4-ylmethyl)amino]ethoxy}phenyl)nicotinonitrile], the concentration for half-maximal inhibition (IC50) worked out at 41 nM. For the compound `COc1ccc(-c2c(C)ncc(C#N)c2Nc2cc(Cl)c3[nH]ccc3c2C)cc1OC` [Example 64, 4-[(7-chloro-4-methyl-1H-indol-5-yl)amino]-5-(3,4-dimethoxyphenyl)-6-methylnicotinonitrile], the IC50 worked out at 84 nM. The value for `Cc1ncc(C#N)c(Nc2ccc3[nH]ccc3c2C)c1-c1cccc(CN(C)C)c1` [Example 66, 5-{3-[(dimethylamino)methyl]phenyl}-6-methyl-4-[(4-methyl-1H-indol-5-yl)amino]pyridine-3-carbonitrile] was 42 nM. Next, `Cc1ncc(C#N)c(Nc2ccc3[nH]ccc3c2C)c1-c1ccc(OCCN2CCC(CCO)CC2)cc1` [Example 25, 5-(4-{2-[4-(2-hydroxyethyl)piperidin-1-yl]ethoxy}phenyl)-6-methyl-4-[(4-methyl-1H-indol-5-yl)amino]nicotinonitrile]: 68 nM; `Cc1ncc(C#N)c(Nc2ccc3[nH]ccc3c2C)c1-c1ccc(CN2CCN(C)CC2)o1` [Example 68, 6-methyl-4-[(4-methyl-1H-indol-5-yl)amino]-5-{5-[(4-methylpiperazin-1-yl)methyl]furan-2-yl}pyridine-3-carbonitrile]: 20 nM; `Cc1ncc(C#N)c(Nc2ccc3[nH]ccc3c2C)c1-c1ccc(OCCN2CCC(N3CCOCC3)CC2)cc1` [Example 28, 6-methyl-4-[(4-methyl-1H-indol-5-yl)amino]-5-{4-[2-(4-morpholin-4-ylpiperidin-1-yl)ethoxy]phenyl}nicotinonitrile]: 28 nM. Next, `CCc1ncc(C#N)c(Nc2ccc3[nH]ccc3c2C)c1-c1ccc(OC)c(OC)c1` [Example 61, 5-(3,4-dimethoxyphenyl)-6-ethyl-4-[(4-methyl-1H-indol-5-yl)amino]nicotinonitrile]: 191 nM. In the case of `Cc1ncc(C#N)c(Nc2ccc3[nH]ccc3c2)c1-c1cccc(CN(C)C)c1` [Example 57, 5-{3-[(dimethylamino)methyl]phenyl}-4-(1H-indol-5-ylamino)-6-methylnicotinonitrile], the IC50 came to 87 nM. Next, `Cc1ncc(C#N)c(Nc2ccc3[nH]ccc3c2C)c1-c1ccc(OCCNCCO)cc1` [Example 17, 5-(4-{2-[(2-hydroxyethyl)amino]ethoxy}phenyl)-6-methyl-4-[(4-methyl-1H-indol-5-yl)amino]nicotinonitrile]: 19 nM; `COc1ccccc1-c1c(C)ncc(C#N)c1Nc1ccc2[nH]ccc2c1` [Example 52, 4-(1H-indol-5-ylamino)-5-(2-methoxyphenyl)-6-methylnicotinonitrile]: 250 nM; `Cc1ncc(C#N)c(Nc2ccc3[nH]ccc3c2)c1-c1ccccc1` [Example 50, 4-(1H-indol-5-ylamino)-6-methyl-5-phenylnicotinonitrile]: 50 nM. Next, `Cc1ncc(C#N)c(Nc2ccc3[nH]ccc3c2C)c1-c1ccc(OCCN2CCC(N3CCCCC3)CC2)cc1` [Example 27, 5-{4-[2-(1,4′-bipiperidin-1′-yl)ethoxy]phenyl}-6-methyl-4-[(4-methyl-1H-indol-5-yl)amino]nicotinonitrile]: 30 nM; `Cc1ncc(C#N)c(Nc2ccc3[nH]ccc3c2C)c1-c1ccc(CN2CCN(C)CC2)s1` [Example 70, 6-methyl-4-[(4-methyl-1H-indol-5-yl)amino]-5-{5-[(4-methylpiperazin-1-yl)methyl]thiophen-2-yl}pyridine-3-carbonitrile]: 14 nM. Next, `Cc1ncc(C#N)c(Nc2ccc3[nH]ccc3c2C)c1-c1ccc(OCCN2CCCCC2)cc1` [Example 24, 6-methyl-4-[(4-methyl-1H-indol-5-yl)amino]-5-[4-(2-piperidin-1-ylethoxy)phenyl]nicotinonitrile]: 44 nM. As for `Cc1ncc(C#N)c(Nc2ccc3[nH]ccc3c2)c1-c1cc2ccccc2o1` [Example 55, 5-(1-benzofuran-2-yl)-4-(1H-indol-5-ylamino)-6-methylnicotinonitrile], the IC50 was determined as 26 nM. On to `Cc1ncc(C#N)c(Nc2ccc3[nH]ccc3c2C)c1-c1ccc(OCCN2CCC(N3CCCC3)CC2)cc1` [Example 26, 6-methyl-4-[(4-methyl-1H-indol-5-yl)amino]-5-{4-[2-(4-pyrrolidin-1-ylpiperidin-1-yl)ethoxy]phenyl}nicotinonitrile], for which the IC50 stood at 31 nM. For the compound `Cc1ncc(C#N)c(Nc2ccc3[nH]ccc3c2C)c1-c1ccc(OCCN2CC(C)NCC2C)cc1` (centres unmarked) [Example 31, 5-{4-[2-(2,5-dimethylpiperazin-1-yl)ethoxy]phenyl}-6-methyl-4-[(4-methyl-1H-indol-5-yl)amino]nicotinonitrile], the IC50 was determined as 42 nM.

As for `Cc1ncc(C#N)c(Nc2ccc3[nH]ccc3c2C)c1-c1ccc(C=O)o1` [Example 67, 5-(5-formylfuran-2-yl)-6-methyl-4-[(4-methyl-1H-indol-5-yl)amino]pyridine-3-carbonitrile], the IC50 was 21 nM.
